In brackets after ≈: the same amount, converted by molar mass. Read-outs that look alike come from different tables or passages of the source. Values belong to the compound of their own block, whether it stands above or below them.
What was measured:
[1] = Stability of solubilizers and solubilized water solutions (heat, pH, light, storage)
[2] = system: A549 (human lung) cancer cells; test: MTT cellular proliferation assay, A549; assay type: cell-based; conditions: 72 hr
Description: (§1) Paclitaxel and camptothecin were purchased from Sigma Chemicals (St. Louis, Mo.). […] The solution was sonicated for 60 min at 69° C. and then placed in a shaking incubator at 25° C. for 48 hr. The solution was then centrifuged at 4,000×g, and the supernatant was filtered with a 0.2 μm nylon filter. […] The sample was labeled as TXL100. To make an aqueous solution of camptothecin, about 5 mg of camptothecin was weighed into a solution containing 70 mg/ml rubusoside. The solution was sonicated for 60 min at 69° C., and then placed in a shaking incubator at 25° C. for 48 hr. The solution was then centrifuged at 4,000×g and the supernatant was filtered with a 0.2 μm nylon filter. This aqueous solution was analyzed by HPLC and contained 10 μg/ml camptothecin in the presence of 70 mg/ml rubusoside. This sample was labeled as CPT70.
Inhibition of cellular proliferation was assessed by a MTT assay. […] On the day of the staining, MTT solution (3 mg Thiazolyl Blue Tetrazolium Bromide/ml PBS was prepared. To each well, 25 μl MTT solution was directly added. The plate was then incubated for 90 to 120 min. Afterwards, the wells were aspirated completely and carefully. Finally, 50 μl DMSO (dimethyl sulfoxide) was added to each well. The plate was read at 650 nm on a microplate reader. Cell proliferations were calculated as % of the control using the vehicle treatment as the control. […]

[3] = The Merck Index (1996) or Material Safety Data Sheets; cited from earlier work
[4] = system: various human cancer cell lines; conditions: Kaczirek 2004; read-out: Reported IC50 range; cited from earlier work
[5] = system: PC3 (human prostate) cancer cells; test: MTT cellular proliferation assay, PC3; assay type: cell-based; conditions: 72 hr
Description: as §1
(§2) Inhibition of cellular proliferation was assessed by a MTT assay. Each well of the 96-well plate contained 10^4 cells/100 μl cell culture growth medium. The cells were seeded onto the plate and placed in a 37° C. incubator overnight. On the next day, the compound treatment was set up. A series of dilutions using phosphate buffered saline (PBS) containing 10% FBS (fetal bovine serum) with either the test compound or vehicle with cell culture growth medium was made for each well with a final volume of 200 μl. Each treatment had 8 wells in a column. Prior to the addition of the test compound, the existing medium in each of the wells was aspirated completely and carefully to avoid losing cells. A series of dilutions of the aqueous samples were made ranging from 20 μl to 0.078 μl supplemented with culture media to make a final volume of 200 μl for each well. The plate was placed in a 37° C. incubator for 72 hr. On the day of the staining, MTT solution (3 mg Thiazolyl Blue Tetrazolium Bromide/ml PBS was prepared. To each well, 25 μl MTT solution was directly added. The plate was then incubated for 90 to 120 min. Afterwards, the wells were aspirated completely and carefully. Finally, 50 μl DMSO (dimethyl sulfoxide) was added to each well. The plate was read at 650 nm on a microplate reader. Cell proliferations were calculated as % of the control using the vehicle treatment as the control.
(§3) Calculations of IC50 in molar concentrations were as follows. […] Thus, 1 μl/ml of TXL solution in the culture medium equaled 17 ng TXL/ml culture medium, which equaled 19.9 nM based on the molecular weight of 854.
(§4) CPT: The sample concentration of CPT was 10 μg/ml=10 ng/μl, and the molecular weight of camptothecin is 348. Thus, 1 μl/ml of CPT solution in the culture medium equaled 10 ng CPT/ml culture medium, which equaled 28.7 nM based on the molecular weight of 348.

[6] = system: PANC-1 (human pancreatic) cancer cells; test: MTT cellular proliferation assay, PANC-1; assay type: cell-based; conditions: 72 hr
Description: as §1, §2, §3, §4

physchem = test: physchem
Description: Solubility test methods: A compound with low solubility was selected and weighed into multiple centrifuge tubes. Each experimental tube received a known amount of the solubilizing agent being tested. The control tubes remained only with the compound. The same volume, 1 mL, unless otherwise indicated, of deionized and distilled water was added to each tube. Alternatively, a set percentage of water solutions containing the solubilizer to be tested (e.g., 5% w/v or 10% w/v) were prepared separately. In these cases, the solubilizer-water solutions were added directly to the tubes containing the low-solubility compound. The tubes were then vortexed briefly and then sonicated for 60 min at temperature of 50° C. unless otherwise indicated. After sonication, the tubes were placed on an orbital shaker at a speed of 80 rpm in an incubator set at 25° C. for at least 24 hr. The tubes were then centrifuged at 4000 rpm for 10 min. The supernatant solution was passed through a 0.2 μm or 0.45 μm filter and analyzed for the concentration of the low-solubility compound, and sometimes the solubilizing compound, by HPLC or UV-Vis spectrophotometer.
The system was computer controlled, and the results were analyzed using Empower software. Calibrations curves were constructed using known concentrations of the compounds and were used to quantify the concentrations of the compounds dissolved in solution. A more complete description of the HPLC procedure for some of the diterpene glycosides is found in G. Chou et al., “Quantitative and fingerprint analyses of Chinese sweet tea plant (Rubus suavissimus S. Lee),” J. Agric. Food Chem., vol.
The ratio of peak areas was used to calculate the increase in water solubility in the absence or presence of solubilizers.

[7] = system: Streptococcus dysgalactiae ATCC 27957; test: Germicidal and Detergent Sanitizer Test (modified AOAC); assay type: cell-based
Description: (§5) Germicidal and Detergent Sanitizer Test. The following challenge organisms were grown in trypticase soy broth for 24 h at 37° C.: Staphylococcus aureus (Gram-positive) ATCC 29740 (Newbould 305), Streptococcus agalactiae (Gram-positive) ATCC 27956 (McDonald 44), Streptococcus dysgalactiae (Gram-positive) ATCC 27957, Streptococcus uberis (Gram-positive) ATCC 27958, Escherichia coli (Gram-negative) ATCC 25922, Pseudomonas aeruginosa (Gram-negative) ATCC 27853, and clinical mastitis isolates of Enterobacter aerogenes (Gram-negative) (216RF) and Klebsiella pneumoniae (Gram-negative) (A37RR) from the Louisiana State University Hill Farm Research Station dairy herd.
(§6) Bacterial cultures. Aliquots of each 24-h bacterial culture were standardized to a turbidity of a 0.5 McFarland standard, which corresponds to approximately 150×10^6 colony-forming units (cfu) per ml. Aliquots containing 0.02 ml of this culture were added to 1.98 ml aliquots of the curcumin-rubusoside solution. […] This solution was mixed thoroughly, and diluted 1:1000 in saline, and 0.1 ml was plated on duplicate Letheen Agar (Becton Dickinson, Cockeysville, Md.) plates for each microorganism tested. Resultant colonies were counted after incubation of the plates at 37° C. for 24 h.
(§7) First Experiment. The test compound was a solubilized curcumin water solution. […] The solution was kept in the dark.
(§8) Second Experiment. For the second experiment, the bacterial cultures were as described above. […] First, 100 mL of a 5% w/v rubusoside water solution was prepared. […] This solution was then autoclaved at 115° C. and 1 atmosphere pressure for 30 min. The autoclaved solution was held in an incubator at 37° C. for 72 hr, and kept in the dark. The solution was adjusted to pH 7.4 by adding appropriate amount of phosphate buffered saline powder and then filtered through a 0.45 μm Nylon filter and analyzed on HPLC.

[8] = system: Escherichia coli ATCC 25922; test: as above; assay type: cell-based
Description: as §5, §6, §7, §8

[9] = system: Staphylococcus aureus ATCC 29740 (Newbould 305); test: as above; assay type: cell-based
Description: as §5, §6, §7, §8

[10] = system: Streptococcus agalactiae ATCC 27956 (McDonald 44); test: as above; assay type: cell-based
Description: as §5, §6, §7, §8

[11] = system: Enterobacter aerogenes (A216RF); test: as above; assay type: cell-based; conditions: solution pH 6.5, 30 Seconds
Description: as §5, §6, §7, §8

[12] = system: Streptococcus uberis ATCC 27958; test: as above; assay type: cell-based; conditions: solution pH 6.5, 30 Seconds
Description: as §5, §6, §7, §8

[13] = system: Klebsiella pneumoniae (A37RR); test: as above; assay type: cell-based; conditions: solution pH 6.5, 30 Seconds
Description: as §5, §6, §7, §8

[14] = system: Pseudomonas aeruginosa ATCC 27853; test: as above; assay type: cell-based
Description: as §5, §6, §7, §8

[15] = in vivo; cited from earlier work
[16] = system: MDA-M231 breast cancer cells; conditions: current drug formulation; Nornoo 2008; read-out: Concentration to kill 50% of cells; cited from earlier work
PC3 cells = conditions: existing formulation, Danesi 1995, Rowinsky 1990, read-out: Reported IC50 for PC3 cells, cited from earlier work
[17] = Estimated safe daily consumption of steviol glycosides
Text: Some diterpene glycosides have been approved by the FDA as sweeteners (e.g., rebaudioside A).

[18] = volume of aqueous sample per ml culture medium
[19] = Homo sapiens, converted from μl/ml, read-out: IC50
[20] = 25 °C, aqueous with cosolvent or surfactant or cyclodextrin, thermodynamic from solid, Solubility in water with solubilizer, natural solubilizer (rubusoside) 20% w/v (200 mg in 1 ml)
[21] = 25 °C, aqueous with cosolvent or surfactant or cyclodextrin, thermodynamic from solid, Solubility in water with solubilizer

Structure (SMILES): CC[C@@]1(O)C(=O)OCc2c1cc1n(c2=O)Cc2cc3ccccc3nc2-1 [Camptothecin]
- Stability of rubusoside water solution at room temperature [1]: stable at room temperature for at least two weeks
- IC50 [2, 18]: 4.93 μl/ml
- IC50 [2, 19]: 142 nM
- Water solubility in words [3]: insoluble
- IC50 [4]: 10 to 3500 nM
- IC50 [5, 18]: 1.03 μl/ml
- IC50 [5, 19]: 29.6 nM
- IC50 [6, 18]: 1.91 μl/ml
- IC50 [6, 19]: 54.9 nM
- Concentration dissolved in rubusoside water solution (physchem; 70 mg (109 mM) rubusoside): 144 µM
- Concentration dissolved in rubusoside water solution (physchem; 70 mg rubusoside (70 mg/ml, 109 mM)): 50000 ng/mL
- solubility (physchem; [20]): 144 µg/mL (≈ 0.413 mM)
- solubility (physchem; 25 °C, water, thermodynamic from solid, Solubility of CPT, Table 4, rubusoside amount as in the label): 0.4 µg/mL (≈ 0.00115 mM)

Structure (SMILES): COc1cc(/C=C/C(=O)CC(=O)/C=C/c2ccc(O)c(OC)c2)ccc1O [Curcumin]
- Percent reduction ([7]; solution pH 6.5, 10 Minutes): 47.92%
- Percent reduction ([7]; solution pH 6.5, 30 Seconds): 43.75%
- Percent reduction ([8]; solution pH 6.5, 10 Minutes): 98.54%
- Percent reduction ([8]; solution pH 6.5, 30 Seconds): no observed inhibition
- Percent reduction ([9]; solution pH 6.5, 10 Minutes): 26.67%
- Percent reduction ([9]; solution pH 6.5, 30 Seconds): 39.33%
- Percent reduction ([10]; solution pH 6.5, 10 Minutes): 99.7%
- Percent reduction ([10]; solution pH 6.5, 30 Seconds): 91.7%
- Percent reduction [11]: no observed inhibition
- Percent reduction [12]: no observed inhibition
- Percent reduction [13]: no observed inhibition
- Percent reduction ([14]; solution pH 6.5, 10 Minutes): 99.99%
- Percent reduction ([14]; solution pH 6.5, 30 Seconds): 99.99%

Structure (SMILES): CCCCN(CCCC)CC(O)c1cc(Cl)cc2c1-c1ccc(Cl)cc1/C2=C/c1ccc(Cl)cc1 (centres unmarked) [Lumefantrine]
- Half-life [15]: 72 to 140 h

- IC50 [5, 18]: 0.69 μl/ml
- IC50 [5, 19]: 13.7 nM
- IC50 [6, 18]: 0.24 μl/ml
- IC50 [6, 19]: 4.9 nM
- Solubility in water with solubilizer (physchem): 10 µg/mL
- Solubility increase factor (physchem): up to 877
- Concentration dissolved in rubusoside water solution (physchem; 20 mg rubusoside in 1 ml water): 350 ng/mL
Structure (SMILES): CC(=O)O[C@H]1C(=O)[C@@]2(C)[C@H]([C@H](OC(=O)c3ccccc3)[C@]3(O)C[C@H](OC(=O)[C@H](O)[C@@H](NC(=O)c4ccccc4)c4ccccc4)C(C)=C1C3(C)C)[C@]1(OC(C)=O)CO[C@@H]1C[C@@H]2O [Paclitaxel, reference compound]
- IC50 [16]: > 1000 nM
- IC50 (PC3 cells; listed as paclitaxel): 31.2 nM
- IC50 (PC3 cells): 50 nM

- Solubility increase factor (physchem): 92
- solubility (physchem; [21]): 240 µg/mL (≈ 0.263 mM)
Structure (SMILES): CO[C@H]1C[C@@H]2CC[C@@H](C)[C@@](O)(O2)C(=O)C(=O)N2CCCC[C@H]2C(=O)O[C@H]([C@H](C)C[C@@H]2CC[C@@H](O)[C@H](OC)C2)CC(=O)[C@H](C)/C=C(\C)[C@@H](O)[C@@H](OC)C(=O)[C@H](C)C[C@H](C)/C=C/C=C/C=C/1C [Rapamycin (Sirolimus), Rapamycin, reference compound]
- Water solubility in words [3]: insoluble

Structure (SMILES): C[C@@H]1O[C@@H](OC[C@H]2O[C@@H](Oc3c(-c4ccc(O)c(O)c4)oc4cc(O)cc(O)c4c3=O)[C@H](O)[C@@H](O)[C@@H]2O)[C@H](O)[C@H](O)[C@H]1O [Rutin]
- Water solubility in words [3]: nearly insoluble
- solubility (physchem; [21]): 1750 µg/mL (≈ 2.87 mM)

Structure (SMILES): Cc1coc2c1C(=O)C(=O)c1c-2ccc2c1CCCC2(C)C [Tanshinone IIA]
- Water solubility in words [3]: nearly insoluble
- solubility (physchem; 25 °C, aqueous with cosolvent or surfactant or cyclodextrin, thermodynamic from solid, Solubility in water with solubilizer, natural solubilizer (rubusoside) 10% w/v (100 mg in 1 ml)): ~53.3 µg/mL (≈ 0.181 mM)
- solubility (physchem; [20]): ~128 µg/mL (≈ 0.434 mM)

Structure (SMILES): C=C1C[C@@]23CC[C@H]4[C@@](C)(CCC[C@@]4(C)C(=O)O[C@@H]4O[C@H](CO)[C@@H](O)[C@H](O)[C@H]4O)[C@@H]2CC[C@]1(O[C@@H]1O[C@H](CO)[C@@H](O)[C@H](O)[C@H]1O)C3 [rubusoside, b-D-glucosyl ester of 13-O-b-D-glucosyl-steviol]
- Daily consumption that is safe and has no adverse effect [17]: 8 mg rubusoside/kg body weight
- No-observed-effect level ([17]; estimate based on 383 mg/kg expressed as steviol): up to 766 mg rubusoside/kg body weight
- Water solubility (physchem): about 60 g/100 mL water
- solubility (physchem; 25 °C, water, Solubility in water): ~400000 µg/mL (≈ 622 mM)
- solubility (physchem; 37 °C, water, Solubility in water): ~800000 µg/mL (≈ 1240 mM)

Reference: US20110033525A1, “Diterpene Glycosides as Natural Solubilizers” (priority 2008, published 2011)
